Results reported in patent publication US20090317335A1, “Hybrid Nanomaterials as Multimodal Imaging Contrast Agents” (priority 2006, published 2009).

Test: MR relaxivity (T1/T2) on 3.0 Tesla MRI scanner
Format: physicochemical
Experimental: Thermogravimetric analysis (TGA) was performed using a Shimadzu TGA-50 (Shimadzu Corp., Kyoto, Japan) equipped with a platinum pan and heated at a rate of 3° C./min under air. A Hitachi 4700 field emission scanning electron microscope (SEM; Hitachi Ltd., Tokyo, Japan) and a JEM 100CX-II transmission electron microscope (JEOL Ltd., Tokyo, Japan) were used to determine particle size and morphology. Scanning electron microscope (SEM) images of the nanoparticles were taken on glass substrate. A Cressington 108 Auto Sputter Coater (Cressington Scientific Instruments, Ltd., Watford, United Kingdom) equipped with an Au/Pd (80/20) target and M™-10 thickness monitor was used to coat the sample with approximately 5 nm of conductive layer before taking SEM images. Gd^3+ ion concentration was measured on a SpectraSpan7 Direct Current Plasma (DCP) Spectrometer (Applied Research Laboratories, La Brea, Calif., United States of America). […] T1 and T2 values were determined on a Bruker 3.0 Tesla full body Magnetic Resonance Imaging (MRI) scanner (Bruker BioSpin MRI GmbH, Ettlingen, Germany). […] Fluorescence microscope images were taken with a Zeiss Axiovert 100 TV Fluorescence Microscope (Carl Zeiss, Inc., Thornwood, N.Y., United States of America) using a FITC filter. T1 values were obtained using the standard inversion-recovery method, whereas T2 values were determined using spin-echo pulse sequences. […]

**Q.** For “gadolinium (aminopropyltrimethoxysilyl) diethylenetriamine tetraacetate [Gd—Si-DTTA complex]”, which r1 (molecular complex, for comparison with 1) is on record?
**A.** 6.8 s^−1 mM^−1 Gd^3+

**Q.** Which “longitudinal relaxivity (r1)” value (per mM of Gd^3+ (metal ion), 3.0 Tesla scanner, water or 0.1% Xanthan gum) does the source give for “bis(aminopropyl-triethoxysilyl)diethylenetriamine pentaacetate gadodiamide [Gd—Si-DTPA complex]” here?
**A.** 6.2 s⁻¹
